From patent US20240350643A1, “PROTEIN DEGRADATION AGENT” (SUZHOU KINTOR PHARMACEUTICALS, INC., priority 2021, published 2024)
Read-outs that look alike come from different tables or passages of the source.

Legend:
c-Myc protein = target: T1, c-Myc protein (Homo sapiens, UniProt P01106); assay: Ability of compounds to degrade c-Myc protein in HL60 cells (ELISA); assay type: cell-based; settings: HL-60, 1 μM compound, 24 h, read-out: HL60 cells Protein degradation rate (1 μM)
T1 construct: endogenous in cells; host or cells: HL60 cells
T1 sequence (P01106 whole entry): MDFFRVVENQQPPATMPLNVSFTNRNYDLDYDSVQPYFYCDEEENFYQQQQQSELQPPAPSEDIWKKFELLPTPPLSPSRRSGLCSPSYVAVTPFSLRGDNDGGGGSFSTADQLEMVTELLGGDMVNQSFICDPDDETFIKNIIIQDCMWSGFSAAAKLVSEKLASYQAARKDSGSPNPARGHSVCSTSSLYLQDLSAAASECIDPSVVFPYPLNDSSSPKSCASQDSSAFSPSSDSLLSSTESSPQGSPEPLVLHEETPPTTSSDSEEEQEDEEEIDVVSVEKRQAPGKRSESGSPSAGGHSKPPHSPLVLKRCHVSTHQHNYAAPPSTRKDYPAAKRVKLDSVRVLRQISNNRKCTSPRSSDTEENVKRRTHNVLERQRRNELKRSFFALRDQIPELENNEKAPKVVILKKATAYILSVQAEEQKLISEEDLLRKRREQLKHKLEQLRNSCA

HL60 cells = assay: Anti-proliferation ability of compounds on HL60 cells (CTG); assay type: cell-based, human; settings: 3 days, CellTiter-Glo, read-out: HL60 cells Proliferation inhibitory activity
Procedure, shortened: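 HL60 cells (20000/well) exposed to serially diluted compounds (0.1% DMSO vehicle control) for 3 days. Viability read by CellTiter-Glo luminescence; IC50 fitted from inhibition rates.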

Row | Compound | inhibition at 1 µM (c-Myc protein) [%] | IC50 (HL60 cells) [nM] | IC50 (HL60 cells; Homo sapiens, HL-60, 72 h) [nM]
1 | O=C(Cc1cccc2ccccc12)NCc1ccc(CC(=O)Nc2ccc3c(c2)C(=O)N(C2CCC(=O)NC2=O)C3=O)cc1 (stereo not drawn) [A165] | 60 to 90 | – | 27.9 ± 19.5
2 | CN(CCc1cccc2ccccc12)Cc1ccc(CC(=O)Nc2ccc3c(c2)C(=O)N(C2CCC(=O)NC2=O)C3=O)cc1 (stereo not drawn) [A167] | 60 to 90 | – | 2.1 ± 1.1
3 | CN(CCn1c2ccccc2c2cccnc21)Cc1ccc(CC(=O)Nc2ccc3c(c2)C(=O)N(C2CCC(=O)NC2=O)C3=O)cc1 (stereo not drawn) [A168] | 60 to 90 | – | 2.6 ± 0.7
4 | CN(CCc1ccc(Cl)cc1Cl)Cc1ccc(CC(=O)Nc2ccc3c(c2)C(=O)N(C2CCC(=O)NC2=O)C3=O)cc1 (stereo not drawn) [A169] | 60 to 90 | – | 1.9 ± 0.6
5 | CN(CCc1ccc(Cl)c(Cl)c1)Cc1ccc(CC(=O)Nc2ccc3c(c2)C(=O)N(C2CCC(=O)NC2=O)C3=O)cc1 (stereo not drawn) [A170] | 60 to 90 | – | 4 ± 1.7
6 | O=C(Cc1nccc2ccccc12)NCc1ccc(CC(=O)Nc2ccc3c(c2)CN(C2CCC(=O)NC2=O)C3=O)cc1 (stereo not drawn) [A172] | 60 to 90 | – | < 3
7 | O=C(Cc1cccc2cccnc12)NCc1ccc(CC(=O)Nc2ccc3c(c2)CN(C2CCC(=O)NC2=O)C3=O)cc1 (stereo not drawn) [A173] | 60 to 90 | – | < 3
8 | CN(CCc1ccc(Cl)cc1Cl)Cc1ccc(CC(=O)Nc2ccc3c(c2)CN(C2CCC(=O)NC2=O)C3=O)c(F)c1 (stereo not drawn) [A174] | 60 to 90 | – | < 3
9 | O=C(Cc1cccc2ccccc12)NCc1ccc(CNCc2ccc3c(c2)C(=O)N(C2CCC(=O)NC2=O)C3=O)cc1 (stereo not drawn) [A175] | 60 to 90 | – | 14.4 ± 6.4
10 | O=C(Cc1cccc2ccccc12)NCc1ccc(C(=O)NCc2ccc3c(c2)C(=O)N(C2CCC(=O)NC2=O)C3=O)cc1 (stereo not drawn) [A177] | 60 to 90 | – | 9.5
11 | O=C1CCC(N2C(=O)c3ccc(CNCc4ccc(C(=O)NCCc5cccc6ccccc56)cc4)cc3C2=O)C(=O)N1 (stereo not drawn) [A179] | 60 to 90 | – | 14 ± 4.1
12 | CN(CCc1cccc2ccccc12)Cc1ccc(CNCc2ccc3c(c2)C(=O)N(C2CCC(=O)NC2=O)C3=O)cc1 (stereo not drawn) [A181] | 60 to 90 | – | 2 ± 1
13 | CN(CCn1c2ccccc2c2cccnc21)Cc1ccc(CNCc2ccc3c(c2)C(=O)N(C2CCC(=O)NC2=O)C3=O)cc1 (stereo not drawn) [A182] | 60 to 90 | – | 1.1 ± 0.8
14 | CN(CCc1cccc2cccnc12)Cc1ccc(CNCc2ccc3c(c2)C(=O)N(C2CCC(=O)NC2=O)C3=O)cc1 (stereo not drawn) [A183] | 60 to 90 | – | 16.7 ± 2.5

Second part, the compound after the results:

Row | inhibition at 1 µM (c-Myc protein) [%] | IC50 (HL60 cells) [nM] | IC50 (HL60 cells; Homo sapiens, HL-60, 72 h) [nM] | Compound
15 | 60 to 90 | 0.4 ± 0.3 | – | O=C(Cn1c2ccccc2c2cccnc21)NCc1ccc(CNC(=O)c2ccc3c(c2)CN(C2CCC(=O)NC2=O)C3=O)c(C(F)(F)F)c1 (stereo not drawn) [A160]
16 | 60 to 90 | – | 0.9 ± 0.1 | O=C(Cc1c(F)ccc2ccccc12)NCc1ccc(CNC(=O)c2ccc3c(c2)CN(C2CCC(=O)NC2=O)C3=O)c(C(F)(F)F)c1 (stereo not drawn) [A161]
17 | 60 to 90 | – | 1.9 ± 0.2 | O=C(Cc1cccc2ccc(F)cc12)NCc1ccc(CNC(=O)c2ccc3c(c2)CN(C2CCC(=O)NC2=O)C3=O)c(C(F)(F)F)c1 (stereo not drawn) [A162]
18 | 60 to 90 | – | 1.3 ± 0.3 | O=C1CCC(N2Cc3cc(C(=O)NCc4ccc(C5(NC(=O)Cc6cccc7ccccc67)CC5)cc4F)ccc3C2=O)C(=O)N1 (stereo not drawn) [A163]
19 | 60 to 90 | – | 2.4 ± 0.3 | O=C1CCC(N2Cc3cc(C(=O)NCc4ccc(C5(NC(=O)Cn6c7ccccc7c7cccnc76)CC5)cc4F)ccc3C2=O)C(=O)N1 (stereo not drawn) [A164]
20 | 60 to 90 | – | 1.7 ± 0.3 | O=C(Cn1c2ccccc2c2cccnc21)NCc1ccc(CC(=O)Nc2ccc3c(c2)C(=O)N(C2CCC(=O)NC2=O)C3=O)cc1 (stereo not drawn) [A166]
21 | 60 to 90 | – | 0.3 ± 0.2 | O=C(Cn1c2ccccc2c2cccnc21)NCc1ccc(CC(=O)Nc2ccc3c(c2)CN(C2CCC(=O)NC2=O)C3=O)cc1 (stereo not drawn) [A171]
22 | 60 to 90 | – | 2.1 ± 0.6 | O=C(Cn1c2ccccc2c2cccnc21)NCc1ccc(CNCc2ccc3c(c2)C(=O)N(C2CCC(=O)NC2=O)C3=O)cc1 (stereo not drawn) [A176]
23 | 60 to 90 | – | 16.9 | O=C(Cn1c2ccccc2c2cccnc21)NCc1ccc(C(=O)NCc2ccc3c(c2)C(=O)N(C2CCC(=O)NC2=O)C3=O)cc1 (stereo not drawn) [A178]
24 | 60 to 90 | – | 133 ± 48.4 | O=C1CCC(N2C(=O)c3ccc(CNCc4ccc(C(=O)NCCn5c6ccccc6c6cccnc65)cc4)cc3C2=O)C(=O)N1 (stereo not drawn) [A180]
